Measurements reported in US12458702B2 (NATIONAL TAIWAN UNIVERSITY, priority 2022, dated 2025).
Entries after “also recorded” stand apart in the source; their conditions may differ. Like-named read-outs stand apart in the source and are kept apart here.

What was measured:
[1] = Organ biodistribution in mice (UPLC-MS/MS); format: in vivo, BALB/c mice; details: 1 hour post i.p. injection
Method: (§1) In the following PK experiments, BALB/c mice (six weeks of age, male) were randomly divided into two groups (n=3). […] Blood samples were collected via femoral vein by syringes at 0, 1, 3, 5, 10, 15, 30, 45 min, 1, 2, 4, and 24 h after drug administration. 50 μL blood samples were collected into 100 μL extraction solvent (EtOAc/MeOH=1:1) and vortex for 30 sec. The supernatants were separated from the mixture by centrifugation at 10,000 rpm for 10 min and frozen at −30° C. pending UPLC-MS/MS analysis. For bio-distribution experiments, the entire dissected organs were placed into round-bottom after weighting, two-milliliter microcentrifuge tubes with 1 mL of extraction solvent (EtOAc/MeOH=1:1) and 7 mm stainless steel beads, then homogenized for 30 min. All of the containers were maintained at 4° C. throughout the process. The supernatants were separated from the mixture by centrifugation at 10,000 rpm for 10 min and frozen at −30° C. The 200 μL solvent from crude organ suspensions was removed by the dryer and then dissolved in 50 μL extraction solvent. All samples were stored at −30° C. and analyzed within 24 h. All of the samples were filtered through 0.22 μm PTFE membranes into 12×32 mm vials for UPLC-MS/MS analyses using 5-FU-^15N2 as a marker. Pharmacokinetic parameters were calculated using the WinNonlin Software (version 5.2, Pharsight, MO, USA.)
Analyses were performed on an ACQUITY UPLC I-Class/Xevo TQ-XS IVD System (Waters, Milford, MA, USA) from College of Public Health, National Taiwan University. The reverse phase BEH C18 (100 mm×2.1 mm, 1.7 μm, Waters) and VanGuard BEH C18 (5 mm×2.1 mm, 1.7 μm, Waters) precolumns were used to separate the analytes. All data were acquired by MassLynx V4.2. The mobile phase consisted of a 10 mM aqueous solution of ammonium acetate (A) and acetonitrile (B), set as follows: 0.00 min 98% A→1.00 min 98% A→3.00 min 10% A→4.50 min 10% A→4.60 min 98% A→6.00 min 98% A; at a rate of 0.5 mL/min for 6.00 min with 4 μL per injection. The column oven was maintained at 60° C. Multiple reaction monitoring (MRM) method was applied in quantification. […]

[2] = Human plasma stability (RP-HPLC); format: in vitro ADME; details: 95% human plasma, 37° C.
Method: To access human plasma stability, synthesized conjugates were prepared in 95% human plasma. […] The mixture was centrifuged at 13,000 rpm for 5 min. […] For compounds 30 and 31, they were dissolved in DMA and added GSH (11.2 mM or 11.2 μM) solution which was prepared in sodium acetate buffer (10 mM, pH 5.0) in the ratio of 50/40 (v/v, drug in DMA/GSH solution) for final GSH of 5 mM or 5 μM in pH 7.0, respectively. After incubation for the indicated time, samples were centrifuged to collect the clear supernatant and stored at −30° C. until analysis. RP-HPLC injections were carried out at the specified conditions, and the area of peak was integrated for further calculation.

[3] = test system: orthotopic CRC mice model; assay: Orthotopic AOM/DSS-induced CRC mice model, tumor area; format: in vivo, BALB/c mice
Method: Azoxymethane (AOM)-induced murine CRC model was applied to model human CRC. BALB/c mice (6 weeks of age, male) were intraperitoneally (i.p.) injected once every two weeks with AOM (10 mg/kg body weight) or the PBS vehicle. Seven days after each AOM injection, 2% dextran sulfate sodium (DSS) was given in the drinking water for four days, followed by 3 days of regular water. This cycle was repeated three times. The mice were randomly divided into eight groups (n=5), on day 60 after the first AOM treatment. […] Tumor volumes and body weights were recorded at sacrifice. The tumors were counted under a dissecting microscope, and the area covered by tumors was measured by imaging software (AxioVision LE 4.8.2.0).

[4] = Plasma pharmacokinetics in mice (UPLC-MS/MS); format: in vivo, BALB/c mice
Method: as §1
Analyses were performed on an ACQUITY UPLC I-Class/Xevo TQ-XS IVD System (Waters, Milford, MA, USA) from College of Public Health, National Taiwan University. The reverse phase BEH C18 (100 mm×2.1 mm, 1.7 μm, Waters) and VanGuard BEH C18 (5 mm×2.1 mm, 1.7 μm, Waters) precolumns were used to separate the analytes. All data were acquired by MassLynx V4.2. The mobile phase consisted of a 10 mM aqueous solution of ammonium acetate (A) and acetonitrile (B), set as follows: 0.00 min 98% A→1.00 min 98% A→3.00 min 10% A→4.50 min 10% A→4.60 min 98% A→6.00 min 98% A; at a rate of 0.5 mL/min for 6.00 min with 4 μL per injection. The column oven was maintained at 60° C. Multiple reaction monitoring (MRM) method was applied in quantification. Mass spectrometer parameters were as follows: capillary voltage, 3.0 kV/3.0 kV, respectively, for positive/negative ion mode; ion source temperature, 120° C.; desolvation temperature, 450° C.; cone gas flow (N2), 50 L/h; desolvation gas flow (N2), 700 L/h; multiplier, 650 V; and collision gas pressure (Ar), 3−4×10^−3 mbar.

HT-29 = assay: Cytotoxicity by SRB assay in HT-29 cells
Method: Cancer cell lines were obtained from ATCC unless otherwise noted. HT-29 and HCT-116 cells were cultured in Dulbecco's Modified Eagle Medium (DMEM, Thermo Fisher Scientific) with 10% fetal bovine serum (FBS, Thermo Fisher Scientific) and 1% antibiotic-antimycotic (Thermo Fisher Scientific).
Briefly, CRC cells were seeded at a density of 5×10^3 cells/well in 96-well microtiter plates (100 μL/well), separated into two groups with or without GSH. After incubation for 24 hours, the culture medium was replaced by fresh medium (100 μL). […] After incubation, 10% cold trichloroacetic acid was gently added to each well and incubated at 4° C. for 1 h. The medium was removed, carefully washed with water, and dried at room temperature. […] The optical density (O.D.) was measured at 510 nm with Multi-Mode Microplate Reader (SpectraMax Paradigm, Beckman Coulter, U.S.). The fraction of cell survival was calculated as follows. Survival fraction=(OD treated−blank)/(OD control−blank). […] Each experiment was repeated three times.

HCT-116 = assay: Cytotoxicity by SRB assay in HCT-116 cells; format: cell-based, human
Method: (§2) The fraction of cell survival was calculated as follows. Survival fraction=(OD treated−blank)/(OD control−blank). […] Each experiment was repeated three times.

NHDF = assay: Cytotoxicity by SRB assay in low GLUT-1 normal cell line NHDF; format: cell-based; details: Homo sapiens, low expression GLUT-1 normal cell line
Method: as §2

[5] = Stability and drug release in GSH (RP-HPLC); format: in vitro ADME
Method: […] After incubation for the indicated time, samples were centrifuged to collect the clear supernatant and stored at −30° C. until analysis. RP-HPLC injections were carried out at the specified conditions, and the area of peak was integrated for further calculation.

[6] = Body weight changes in the CRC mice model; format: in vivo, BALB/c mice; details: during treatment in CRC mice model
Method: Azoxymethane (AOM)-induced murine CRC model was applied to model human CRC. BALB/c mice (6 weeks of age, male) were intraperitoneally (i.p.) injected once every two weeks with AOM (10 mg/kg body weight) or the PBS vehicle. Seven days after each AOM injection, 2% dextran sulfate sodium (DSS) was given in the drinking water for four days, followed by 3 days of regular water. This cycle was repeated three times. The mice were randomly divided into eight groups (n=5), on day 60 after the first AOM treatment. […] Irinotecan (20 mg/kg), compound 31 (20 mg/kg), and irinotecan+compound 17 (20 mg/kg of irinotecan and 14 mg/kg of compound 17) were injected i.p. q.o.d for two weeks. […] Tumor volumes and body weights were recorded at sacrifice. The tumors were counted under a dissecting microscope, and the area covered by tumors was measured by imaging software (AxioVision LE 4.8.2.0).

[7] = test system: CRC cell lines HCT-116 and HT-29; assay: Cytotoxicity against CRC cell lines, summary over both lines (SRB assay); format: cell-based, human; details: HCT-116 and HT-29, with or without GSH
Method: as §2

pH stability analysis = format: physicochemical
[8] = Homo sapiens, HT-29, 48 h, read-out: IC50 HT-29 w/o GSH
[9] = Homo sapiens, HCT-116, 48 h, w/o GSH, read-out: IC50 HCT-116 w/o GSH

Structure (SMILES): O=C(CCCSSCCOCCOCCOc1cc(O)c(C(=O)CCc2ccc(O)cc2)c(O)c1)OCn1cc(F)c(=O)[nH]c1=O [Compound 7, (5-Fluoro-2,4-dioxo-3,4-dihydropyrimidin-1(2H)-yl)methyl 4-((2-(2-(2-(3,5-dihydroxy-4-(3-(4-hydroxyphenyl)propanoyl)phenoxy)ethoxy)ethoxy)ethyl)disulfanyl)butanoate]
- organ distribution of the compound, in words ([1]; 50 mg/kg): distributed in the stomach, colon, heart, and liver
- organ distribution of 5-FU, in words ([1]; compound 7 50 mg/kg, free 5-FU 9.5 mg/kg): detected mainly in colon, with small amounts in the kidney and stomach
- half-life in human plasma [2]: 13 h
- reduction of tumor volume ([3]; 5-FU series, 50 mg/kg i.p. once every 3 days for 3 weeks): 67%
- tumor suppression (tumor area), in words ([3]; 5-FU series, i.p. once every three days for three weeks, compound 7 and 5-FU 50 mg/kg, 5-FU 10 mg/kg + compound 17 30 mg/kg): better tumor suppression than 5-FU
- plasma concentration of compound 7 after 5 min, in words ([4]; i.p. 50 mg/kg): below the detection limit
- plasma concentration of 5-FU after 2 h, in words ([4]; i.p. injection): undetectable
- T. of 5-FU ([4]; i.p. injection, 5-FU measured in plasma): 45 min
- time within which 5-FU released from compound 7 was detected in blood ([4]; i.v. 50 mg/kg): ≤ 2 h
- plasma concentration of compound 7 after 30 min, in words ([4]; i.v. 50 mg/kg, lower detection limit=0.003 μg/mL, detectable again after 45 min and 4 h): undetectable
- IC50 (HT-29; Homo sapiens, HT-29, 48 h, read-out: IC50 HT-29 5 mM GSH): 3.8 µM
- IC50 (HT-29; [8]): 19.6 ± 3.86 µM
- IC50 (HCT-116; Homo sapiens, HCT-116, read-out: IC50 HCT-116 5 mM GSH, 48 h, 5 mM GSH): 10.5 µM
- IC50 (HCT-116; [9]): 21.2 ± 1.69 µM
- IC50 (NHDF): 90 ± 2.6 µM
- degradation after 48 h ([5]; 5 μM GSH, 48 h): 30%
- cleavage percentage after 4 hours ([5]; 1 mM GSH): ~10%
- cleavage percentage after 4 hours ([5]; 5 mM GSH): up to 60%
- half-life at 2.5 mM ([5]; PBS containing 1 mM GSH, pH 7.4, half-life at 1 mM GSH, 1 mM GSH, PBS pH 7.4): 10.3 h
- half-life at 2.5 mM ([5]; PBS containing GSH, pH 7.4, highly reductive environments, read-out: half-lives in highly reductive environments): < 5 h
- body weight change, in words [6]: without body weight loss; also recorded: no significant change in the body weight

Structure (SMILES): CCc1c2c(nc3ccc(OCc4ccc(NC(=O)[C@H](CCCNC(N)=O)NC(=O)[C@@H](NC(=O)CCCCN5C(=O)CC(SCCOCCOCCOc6cc(O)c(C(=O)CCc7ccc(O)cc7)c(O)c6)C5=O)C(C)C)cc4)cc13)-c1cc3c(c(=O)n1C2)COC(=O)[C@]3(O)CC (stereo partly shown) [Compound 38]
- anti-tumor efficacy (tumor area), in words ([3]; SN-38 series, i.v. once every two days for two weeks, 40 mg/kg vs irinotecan 40 mg/kg): good therapeutic efficacy than irinotecan; also recorded: better anti-tumor efficacy than irinotecan
- cytotoxicity in HT-29 cell line, in words (HT-29): less sensitive
- IC50 (HT-29; read-out: IC50 HT-29, 48 h, prepared in DMSO): > 100 µM
- body weight change, in words [6]: did not decrease the body weight; also recorded: no significant change in the body weight

Structure (SMILES): CCc1c2c(nc3ccc(OC(=O)OCCSSCCOCCOCCOc4ccc(O)c(C(=O)CCc5ccc(O)cc5)c4O)cc13)-c1cc3c(c(=O)n1C2)COC(=O)[C@]3(O)CC [Compound 31, (S)-4,11-diethyl-4-hydroxy-3,14-dioxo-3,4,12,14-tetrahydro-1H-pyrano[3′,4′:6,7]indolizino[1,2-b]quinolin-9-yl(2-((2-(2-(2-(2,4-dihydroxy-3-(3-(4-hydroxyphenyl)propanoyl)phenoxy)ethoxy)eyhoxy)ethyl)disulfanyl)ethyl) carbonate]
- half-life in human plasma [2]: 0.833 h
- reduction of tumor volume ([3]; SN-38 series, 20 mg/kg i.p. once every two days for two weeks): 70%
- anti-tumor efficacy (tumor area), in words ([3]; SN-38 series, i.p. once every two days for two weeks, 20 mg/kg, irinotecan 20 mg/kg + compound 17 14 mg/kg): better anti-tumor efficacy than irinotecan
- IC50 (HT-29; read-out: IC50 HT-29 5 mM GSH, 48 h, prepared in DMA, 5 mM GSH): 0.0114 ± 0.00103 µM
- IC50 (HT-29; read-out: IC50 HT-29 w/o GSH, 48 h, prepared in DMA, w/o GSH): 0.0163 ± 0.00131 µM
- IC50 (HCT-116; 72 h, prepared in DMA, w/o GSH, read-out: IC50 HCT-116 w/o GSH): 0.00287 ± 0.00019 µM
- IC50 (HCT-116; read-out: IC50 HCT-116 5 mM GSH, 72 h, prepared in DMA, 5 mM GSH): 0.00259 ± 0.00012 µM
- cytotoxicity against CRC cell lines, in words [7]: less or similar cytotoxicity
- degraded after 48 h ([5]; 0 and 5 μM GSH, 48 h): 10%
- degraded to SN-38 after 48 h ([5]; 5 mM GSH, 48 h): over 90%
- body weight change, in words [6]: did not decrease the body weight; also recorded: no significant change in the body weight

Structure (SMILES): O=C(CCc1cn(CCOCCOCCOc2cc(O)c(C(=O)CCc3ccc(O)cc3)c(O)c2)nn1)OCn1cc(F)c(=O)[nH]c1=O [Compound 9]
- half-life [2]: 3.6 h
- IC50 (HT-29; [8]): 85 ± 9.1 µM
- IC50 (HCT-116; [9]): > 100 µM
- pH stability, in words (pH stability analysis; pH 4-5): stable
- pH stability, in words (pH stability analysis; pH >7): prone to fully degrade
- cytotoxicity against CRC cell lines, in words [7]: poorly cytotoxic
- release of 5-FU, in words ([5]; 5 mM GSH, after 48 h): Little 5-FU was released
